Tested on: not given
Experiment: not given
Conditions: not given

Question: With `COc1ccccc1S(=O)(=O)N(C)c1cccc2cc(C3=NCC(CC(=O)Nc4nnc[nH]4)S3)[nH]c12` (centres unmarked) [Example 310, 2-(2-{7-[[(2-methoxyphenyl)sulfonyl](methyl)amino]-1H-indol-2-yl}-4,5-dihydro-1,3-thiazol-5-yl)-N-4H-1,2,4-triazol-3-ylacetamide] as the compound, how does the melting point read?
Answer: 208 to 209 °C

Question: Which melting point does the source give for `COc1ccccc1S(=O)(=O)N(C)c1cccc2cc(C3=NCC(CC(=O)N4CCC(O)CC4)S3)[nH]c12` (centres unmarked) [Example 311, N-(2-{5-[2-(4-hydroxypiperidino)-2-oxoethyl]-4,5-dihydro-1,3-thiazol-2-yl}-1H-indol-7-yl)-2-methoxy-N-methylbenzenesulfonamide] here?
Answer: 166 to 167 °C

Question: Which melting point does the source give for `CN(c1cccc2cc(C3=NCC(CC(=O)O)S3)[nH]c12)S(=O)(=O)c1ccccc1C(F)(F)F` (centres unmarked) [Example 314, {2-[7-(methyl{[2-(trifluoromethyl)phenyl]sulfonyl}amino)-1H-indol-2-yl]-4,5-dihydro-1,3-thiazol-5-yl}acetic acid] here?
Answer: 170 to 172 °C

Question: For `CN(c1cccc2cc(C3=NCC(CCO)S3)[nH]c12)S(=O)(=O)c1ccccc1C(F)(F)F` (centres unmarked) [Example 315, N-{2-[5-(2-hydroxyethyl)-4,5-dihydro-1,3-thiazol-2-yl]-1H-indol-7-yl}-N-methyl-2-(trifluoromethyl)benzenesulfonamide], which melting point is on record?
Answer: 153 to 154 °C

Question: With `CN(c1cccc2cc(C3=NCC(CC(=O)N4CCC[C@H]4C(=O)O)S3)[nH]c12)S(=O)(=O)c1ccccc1C(F)(F)F` (stereo partly drawn) [Example 316, 1-({2-[7-(methyl{[2-(trifluoromethyl)phenyl]sulfonyl}amino)-1H-indol-2-yl]-4,5-dihydro-1,3-thiazol-5-yl}acetyl)-L-proline] as the compound, how does the melting point read?
Answer: 132 to 135 °C

Question: For `CN(c1cccc2cc(C3=NCC(CN4CCS(=O)(=O)CC4)S3)[nH]c12)S(=O)(=O)c1ccccn1` (centres unmarked) [Example 318, N-(2-{5-[(1,1-dioxidothiomorpholino)methyl]-4,5-dihydro-1,3-thiazol-2-yl}-1H-indol-7-yl)-N-methylpyridine-2-sulfonamide], which melting point is on record?
Answer: 188 to 189 °C

Question: Which melting point does the source give for `CN(c1cccc2cc(C3=NCC(CN4CC[S+]([O-])CC4)S3)[nH]c12)S(=O)(=O)c1nccn1C` (centres unmarked) [Example 320, N,1-dimethyl-N-(2-{5-[(1-oxidothiomorpholino)methyl]-4,5-dihydro-1,3-thiazol-2-yl}-1H-indol-7-yl)-1H-imidazole-2-sulfonamide] here?
Answer: 161 to 162 °C

Question: With `CN(c1cc(OCCCS(C)(=O)=O)cc2cc(C3=NCC(CN4CCOCC4)S3)[nH]c12)S(=O)(=O)c1ccccn1` (centres unmarked) [Example 321, N-methyl-N-{5-[3-(methylsulfonyl)propoxy]-2-[5-(morpholinomethyl)-4,5-dihydro-1,3-thiazol-2-yl]-1H-indol-7-yl}pyridine-2-sulfonamide] as the compound, how does the melting point read?
Answer: 168 to 169 °C

Question: With `CN(c1cc(OCCCS(C)(=O)=O)cc2cc(C3=NCC(CN4CC[S+]([O-])CC4)S3)[nH]c12)S(=O)(=O)c1ccccn1` (centres unmarked) [Example 323, N-methyl-N-(5-[3-(methylsulfonyl)propoxy]-2-{5-[(1-oxidothiomorpholino)methyl]-4,5-dihydro-1,3-thiazol-2-yl}-1H-indol-7-yl)pyridine-2-sulfonamide] as the compound, how does the melting point read?
Answer: 107 to 110 °C

Question: Which melting point does the source give for `CC(=O)N1CCN(CC2CN=C(c3cc4cc(OCCCS(C)(=O)=O)cc(N(C)S(=O)(=O)c5ccccn5)c4[nH]3)S2)CC1` (centres unmarked) [Example 324, N-{2-{5-[(4-acetylpiperazin-1-yl)methyl]-4,5-dihydro-1,3-thiazol-2-yl}-5-[3-(methylsulfonyl)propoxy]-1H-indol-7-yl}-N-methylpyridine-2-sulfonamide] here?
Answer: 165 to 167 °C

Question: With `CN(c1cc(OCCCS(C)(=O)=O)cc2cc(C3=NCC(CN4CCN(S(C)(=O)=O)CC4)S3)[nH]c12)S(=O)(=O)c1ccccn1` (centres unmarked) [Example 325, N-methyl-N-{2-(5-{[4-(methylsulfonyl)piperazin-1-yl]methyl}-4,5-dihydro-1,3-thiazol-2-yl)-5-[3-(methylsulfonyl)propoxy]-1H-indol-7-yl}pyridine-2-sulfonamide] as the compound, how does the melting point read?
Answer: 151 to 153 °C

Question: For `CN(c1cccc2cc(C3=NCC(CC(=O)O)S3)[nH]c12)S(=O)(=O)c1ccccn1` (centres unmarked) [Example 333, (2-{7-[methyl(pyridin-2-ylsulfonyl)amino]-1H-indol-2-yl}-4,5-dihydro-1,3-thiazol-5-yl)acetic acid], which melting point is on record?
Answer: 231 to 233 °C

Question: For `CN(c1cccc2cc(C3=NCC(CC(N)=O)S3)[nH]c12)S(=O)(=O)c1ccccn1` (centres unmarked) [Example 334, 2-(2-{7-[methyl(pyridin-2-ylsulfonyl)amino]-1H-indol-2-yl}-4,5-dihydro-1,3-thiazol-5-yl)acetamide], which melting point is on record?
Answer: 206 to 207 °C

Question: Which melting point does the source give for `CN(c1cccc2cc(C3=NCC(CC(N)=O)S3)[nH]c12)S(=O)(=O)c1ccccn1` (centres unmarked) [Example 338, 2-(2-{7-[methyl(pyridin-2-ylsulfonyl)amino]-1H-indol-2-yl}-4,5-dihydro-1,3-thiazol-5-yl)acetamide] here?
Answer: 148 to 149 °C

Question: Which melting point does the source give for `O=S(=O)(c1cccs1)N(c1cccc2cc(C3=NCC(CN4CCOCC4)S3)[nH]c12)C(F)F` (centres unmarked) [Example 346, N-(difluoromethyl)-N-{2-[5-(morpholinomethyl)-4,5-dihydro-1,3-thiazol-2-yl]-1H-indol-7-yl}thiophene-2-sulfonamide] here?
Answer: 185 to 186 °C

Question: For `CN(c1cc(OC(F)(F)F)cc2cc(C3=NCC(CC(N)=O)S3)[nH]c12)S(=O)(=O)c1cccs1` (centres unmarked) [Example 384, 2-{2-[7-[methyl(2-thienylsulfonyl)amino]-5-(trifluoromethoxy)-1H-indol-2-yl]-4,5-dihydro-1,3-thiazol-5-yl}acetamide], which melting point is on record?
Answer: 186 to 187 °C

Biological target: T1, GST-hLGK1 (human liver GK) (Homo sapiens, UniProt P35557)
T1 construct: made in house; host or cells: Escherichia coli BL21 (Stratagene), plasmid pGEX6P-2/hLGK1
T1 sequence (P35557 1-464 isoform P35557-3): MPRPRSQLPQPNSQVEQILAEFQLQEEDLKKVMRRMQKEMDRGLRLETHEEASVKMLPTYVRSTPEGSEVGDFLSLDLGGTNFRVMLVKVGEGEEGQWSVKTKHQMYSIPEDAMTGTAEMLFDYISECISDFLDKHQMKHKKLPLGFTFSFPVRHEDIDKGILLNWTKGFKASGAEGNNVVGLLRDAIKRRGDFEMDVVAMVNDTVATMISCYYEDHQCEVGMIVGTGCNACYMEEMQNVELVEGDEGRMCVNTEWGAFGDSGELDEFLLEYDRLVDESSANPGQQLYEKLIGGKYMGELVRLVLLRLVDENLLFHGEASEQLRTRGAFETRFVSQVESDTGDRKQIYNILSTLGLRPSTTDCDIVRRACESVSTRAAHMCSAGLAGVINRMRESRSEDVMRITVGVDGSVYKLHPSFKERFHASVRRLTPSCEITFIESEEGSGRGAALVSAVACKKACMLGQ
Experiment: Determination of GK activity value (GST-hLGK1, Mant-ATP, capillary electrophoresis)
Format: biochemical
Conditions: glucokinase activation; GST-hLGK1, D-glucose, 37° C. for 60 min; concentration at midpoint between maximum activity value and control group activity value
Description: Plasmid DNA to be used for the expression of a protein (GST-hLGK1) containing GST (Glutathione S-transferase) added to the amino terminal of human liver GK in Escherichia coli was prepared as follows.
BL21 strain (Stratagene) transformed with pGEX6P-2/hLGK1 obtained in Reference Example 1A was cultured with shaking at 37° C. for 14 hr in a 200 ml Erlenmeyer flask containing 50 ml of 100 μg/ml ampicillin-containing LB medium. The culture medium (25 ml) was diluted with 225 ml of 100 μg/ml ampicillin-containing LB medium, and further cultured with shaking at 37° C. for 1 hr in a 1 L Erlenmeyer flask. After culture, the Erlenmeyer flask was cooled on ice, 125 μL of 100 mM isopropyl-thio-β-D-galactopyranoside (IPTG) was added (final concentration 50 μM), and cultured at 17° C. for 20 hr. The culture medium was centrifuged, and the obtained fungus was disrupted by ultrasonication. The object protein (GST-hLGK1) was purified from the supernatant using Glutathione Sepharose 4B (Amersham Biosciences K.K.).
A solution (5 μL) of test compound in 50% dimethyl sulfoxide was added to each well of 384 well black plate (Nalge Nunc International K.K.). Then, a solution ([…]) obtained by diluting GST-hLGK1 obtained in Reference Example 2A with measurement buffer (containing 50 mM HEPES (pH 7.4), 200 mM KCl, 5 mM MgCl2, 2.5 mM DTT and 50 μM 2′-(or-3′)-O—(N-methylanthraniloyl)adenosine 5′-triphosphate (Mant-ATP) (Jena Bioscience GmbH)) to 6 μg/mL was added to each well.
Each well was stood at 37° C. for 10 min, and 25 mM D-glucose solution (10 μL) was added to start the reaction.
Each well after the reaction was stood at 37° C. for 60 min, and the reaction was quenched by adding 25 μL of a quenching solution (containing 200 mM HEPES (pH 7.4), 20 mM MgCl2, 200 mM EDTA, 0.03% Triton-X 100, 0.3% Coating 3 reagent (Caliper Life Sciences, Inc.)).
2′-(or-3′)-O—(N-methylanthraniloyl)adenosine 5′-triphosphate (Mant-ATP, substrate) and Mant-ADP (reaction resultant product) were separated from each well after the reaction by a microchip type capillary electrophoresis apparatus 250 HTS (Caliper Life Sciences, Inc.). The reaction rate [(reaction resultant product peak height)/(reaction resultant product peak height+substrate peak height)×100(%)] was calculated from the ratio of the substrate peak height and reaction resultant product peak height obtained by fluorescence detection (excitation wavelength 355 nm, measurement wavelength 460 nm) and used as the index of GK activity.
As a control group, the reaction rate was calculated in the same manner as above except that “solution in 50% dimethyl sulfoxide (without test compound)” was used instead of “solution of test compound in 50% dimethyl sulfoxide”.
A concentration dependency curve of the test compound was drawn with the percentage obtained by dividing the reaction rate of the well added with the test compound (test compound addition group) by the reaction rate of the control group was taken as the GK activity value of the test compound, and the concentration of the test compound at the midpoint between the maximum activity value of the test compound addition group and the control group activity value is shown as EC50 value.

Question: For `CN(c1cccc2cc(C3=NCC(CN4CCOCC4)S3)[nH]c12)S(=O)(=O)c1cccs1` (single isomer, unassigned) [Example 274, N-methyl-N-{2-[5-(morpholinomethyl)-4,5-dihydro-1,3-thiazol-2-yl]-1H-indol-7-yl}thiophene-2-sulfonamide], which EC50 is on record?
Answer: 81 nM

Question: For `O=S(=O)(c1cccs1)N(c1cccc2cc(C3=NCC(CN4CCOCC4)S3)[nH]c12)C(F)F` (single isomer, unassigned) [Example 348, N-(difluoromethyl)-N-{2-[5-(morpholinomethyl)-4,5-dihydro-1,3-thiazol-2-yl]-1H-indol-7-yl}thiophene-2-sulfonamide], which EC50 is on record?
Answer: 44 nM

Question: For `COCCOc1cc(N(C)S(=O)(=O)c2ccccn2)c2[nH]c(C3=NCC(CN4CC[S+]([O-])CC4)S3)cc2c1` (single isomer, unassigned) [Example 398, N-(5-(2-methoxyethoxy)-2-{5-[(1-oxidothiomorpholino)methyl]-4,5-dihydro-1,3-thiazol-2-yl}-1H-indol-7-yl)-N-methylpyridine-2-sulfonamide], which EC50 is on record?
Answer: 210 nM

Question: Which EC50 does the source give for `CN(c1cc(OC(F)(F)F)cc2cc(C3=NCC(CC(N)=O)S3)[nH]c12)S(=O)(=O)c1cccs1` (single isomer, unassigned) [Example 520, 2-{2-[7-[methyl(2-thienylsulfonyl)amino]-5-(trifluoromethoxy)-1H-indol-2-yl]-4,5-dihydro-1,3-thiazol-5-yl}acetamide] here?
Answer: 190 nM
